Series [1] is described as follows: Cytotoxicity assay, MRC-5SV2 cells, resazurin, 3 days. The series is classed as cell-based. Conditions: human, MRC-5SV2 human lung fibroblast cells, MRC-5 cells, highest concentration 64 µM. The method in brief: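 MRC-5SV2 fibroblasts (1.5 × 10^5 cells/mL, MEM, 5% FCS) exposed 3 days at 37 °C, 5% CO2 to 64–0.25 µM (4-fold), DMSO <1%. Viability by resazurin (10 µg mL^−1, 4 h) fluorescence; EC50 interpolated from flanking points around 50% inhibition.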
In general terms: Alamar Blue is a resazurin reagent that responds to reducing activity.

The target in series [2] is Toll-like receptor 9 (TLR9). Set-up: method as in PMID 27537371. The conditions noted are these: readout of a cellular assay, cited from earlier work.
Series [3] deals with primary mouse macrophages (PMMs). Nature of the series: Cytotoxicity against primary peritoneal mouse macrophages (PMM). The series is classed as cell-based. Conditions: Macrophage. On the procedure: The series of final products (13–69) was investigated in vitro on the human fetal lung fibroblast cell line MRC-5 (Table 1) to assess cytotoxicity toward normal (i.e., non-malignant) human cells. […] As explained earlier, these are important pathogens for humans or cattle (T. b. brucei) and a persistent need for new therapeutics exists for these parasites. As a part of the antiparasitic tests, cytotoxicity against primary mouse macrophages (PMMs) was also evaluated. These murine cells serve as host cells for parasites in the L. infantum assay. Therefore, the murine macrophage assay not only offers additional cytotoxicological insight but is also essential to interpreting the readout of the L. infantum assay.
The MRC-5SV2 human lung fibroblast cell line was cultured in MEM + Earle’s salts-medium, supplemented with 2 mM L-glutamine, 16.5 mM NaHCO3, and 5% inactivated fetal calf serum. For evaluating the antileishmanial activity, the L. infantum MHOM/MA(BE)/67 strain was used. This strain was maintained in a Golden hamster (Mesocricetus auratus). Amastigotes were collected from the spleen of an infected donor hamster using differential centrifugation. Primary peritoneal mouse macrophages were used as host cells and were collected 2 days after peritoneal stimulation with a 2% potato starch suspension. For the intracellular T. cruzi assays, the Tulahuen CL2 strain was used that expresses β-galactosidase. The strain was maintained in MRC-5SV2 cells in MEM medium. The T. b. brucei Squib 427 strain or T. b. rhodesiense STIB-900 strain was used for screening against the extracellular African trypanosomes. The strains were maintained in Hirumi’s Modified Iscove’s medium-9 (HMI-9), supplemented with 10% inactivated fetal calf serum. All cultures and assays were performed at 37 °C with 5% CO2.
Primary peritoneal mouse macrophages (PMMs) were prepared in RPMI-1640 medium, supplemented with 2 mM L-glutamine, 16.5 mM NaHCO3, and 5% inactivated fetal calf serum. The macrophages are infected after 48 h with spleen-derived L. infantum amastigotes (3 × 10^4 PMM + 4.5 × 10^5 parasites/well). The compounds were added after 2 h of infection. After 5 days incubation, parasite burdens (mean number of amastigotes/macrophage) were assessed microscopically after staining with a 10% Giemsa solution and EC50 values were calculated.

For series [4], the system named is Trypanosoma cruzi Tulahuen CL2 strain. Nature of the series: Intracellular T. cruzi assay in MRC-5 cells (β-galactosidase/CPRG, 7 days). Conditions: intracellular in MRC-5 cells. The series is classed as cell-based. The essentials: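 MRC-5SV2 fibroblasts infected with β-galactosidase-expressing T. cruzi Tulahuen CL2 and exposed to compounds (10 concentrations, 64 µM to 0.2 nM; DMSO <1%) for 7 days at 37 °C, 5% CO2. Parasite growth read by CPRG absorbance at 540 nm after 4 h versus untreated infected controls; EC50 calculated.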

In series [5] the test system is L. infantum MHOM/MA(BE)/67 strain. Nature of the series: L. infantum intracellular amastigote assay in PMM (Giemsa, 5 days). The series is classed as cell-based, Leishmania infantum. The essentials:
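Primary mouse peritoneal macrophages were infected with spleen-derived amastigotes (3 × 10^4 PMM + 4.5 × 10^5 parasites/well), and compound was added 2 h post-infection. Ten concentrations (64 µM to 0.2 nM; DMSO <1%) were incubated 5 days at 37 °C, 5% CO2. Giemsa-stained amastigotes per macrophage were counted microscopically to give EC50.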

The test system of series [6] is T. b. brucei Squib 427 strain. The series can be described thus: T. b. brucei growth assay (resazurin, 3 days). The series is classed as cell-based, Trypanosoma brucei brucei. The essentials: (§1)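 Bloodstream parasites in HMI-9 with 10% FCS at 37 °C, 5% CO2, 1.5 × 10^4 (T. b. brucei) or 4 × 10^3 (T. b. rhodesiense) per well, exposed to 10 concentrations from 64 µM to 0.2 nM. After 3 days resazurin added, fluorescence read after 24 h or 6 h respectively; EC50 derived.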

For series [7], the system named is T. b. rhodesiense STIB-900 strain. The series can be described thus: T. b. rhodesiense growth assay (resazurin, 3 days). It is filed as cell-based, Trypanosoma brucei rhodesiense. The essentials: as §1
Where [8] appears, read: Trypanosoma cruzi, TULAHUEN, MRC5, 168 h.
The mark [9] stands for this setting: Leishmania infantum, 120 h, amastigotes in PMM, 5 days, read-out: L. inf. (EC50).
Where [10] appears, read: Trypanosoma brucei, 72 h, 3 days, read-out: T. b. bruc. (EC50).
The mark [11] stands for this setting: Trypanosoma brucei, RHODESIENSE, 72 h, 3 days, read-out: T. b. rhod. (EC50).
Where [12] appears, read: Leishmania infantum, 120 h, read-out: L. inf. (EC50, µM), amastigotes in PMM, 5 days.
[13] abbreviates: Trypanosoma brucei, 72 h, read-out: T. b. bruc. (EC50, µM), 3 days.
The mark [14] stands for this setting: Trypanosoma brucei, RHODESIENSE, 72 h, read-out: T. b. rhod. (EC50, µM), 3 days.

By EC50 is commonly meant the concentration needed to bring the measured effect to its halfway point.

The structures appear in SMILES notation. Counter-ions that a name gives are not always drawn. Like-named read-outs stand apart in the source and are kept apart here.

Turning to `CN(C)CCCNCc1cn(-c2ccccc2)nc1-c1ccc2c(c1)OCCO2.Cl.Cl` [Compound 29, N^1-((3-(2,3-dihydrobenzo[b][1,4]dioxin-6-yl)-1-phenyl-1H-pyrazol-4-yl)methyl)-N^3,N^3-dimethylpropane-1,3-diamine dihydrochloride], the EC50 at 3 days in series [1] worked out at 5.14 µM. Moreover, the “EC50 for TLR9 antagonism” value in series [2] is on record as “grossly comparable potency”.

For the compound `O=C(c1cn(-c2ccccc2)nc1-c1ccc2c(c1)OCCO2)N1CCCC1` [Compound 39, (3-(2,3-dihydrobenzo[b][1,4]dioxin-6-yl)-1-phenyl-1H-pyrazol-4-yl)(pyrrolidin-1-yl)methanone], in series [1], the EC50 at 3 days was 23.2 µM. In addition, the EC50 in series [3] is over 64 µM; in series [4] (setting [8]), 8.8 µM; in series [5] (setting [9]) it was 38.1 µM; in series [6] (setting [10]) it was over 64 µM; in series [7] (setting [11]), 37.6 µM.

As for `c1ccc(-n2cc(CNCCN3CCOCC3)c(-c3ccc4c(c3)OCCO4)n2)cc1` [Compound 28, N-((3-(2,3-dihydrobenzo[b][1,4]dioxin-6-yl)-1-phenyl-1H-pyrazol-4-yl)methyl)-2-morpholinoethan-1-amine dihydrochloride], the EC50 at 3 days in series [1] worked out at 29.4 µM. The EC50 in series [3] was found to be 32 µM; in series [4] (setting [8]), 30.3 µM; in series [5] (setting [12]), 32.5 µM; in series [6] (setting [13]) it was 7.08 µM; in series [7] (setting [14]), 6.27 µM.

In series [1], `O=C(NCCc1ccccn1)c1cn(-c2ccccc2)nc1-c1ccc2c(c1)OCCO2` [Compound 37, 3-(2,3-dihydrobenzo[b][1,4]dioxin-6-yl)-1-phenyl-N-(2-(pyridin-2-yl)ethyl)-1H-pyrazole-4-carboxamide] yielded an EC50 at 3 days of 32 µM. Moreover, the EC50 was over 64 µM in series [3]; 13.1 µM in series [4] (setting [8]); over 64 µM in series [5] (setting [9]); 20.2 µM in series [6] (setting [10]); 2.96 µM in series [7] (setting [11]).

Consider `O=C(NCc1ccccc1)c1cn(-c2ccccc2)nc1-c1ccc2c(c1)OCCO2` [Compound 32, N-benzyl-3-(2,3-dihydrobenzo[b][1,4]dioxin-6-yl)-1-phenyl-1H-pyrazole-4-carboxamide], for which the EC50 at 3 days in series [1] was over 64 µM. Further, the EC50 was over 64 µM in series [3]; 6.79 µM in series [4] (setting [8]); 12.7 µM in series [5] (setting [9]); 24.1 µM in series [6] (setting [10]); 4.86 µM in series [7] (setting [11]).

In series [1], `CNC(=O)c1ccc(NCc2cn(-c3ccccc3)nc2-c2ccc3c(c2)OCCO3)cn1` [Compound 18, 5-(((3-(2,3-dihydrobenzo[b][1,4]dioxin-6-yl)-1-phenyl-1H-pyrazol-4-yl)methyl)amino)-N-methylpicolinamide] registered a concentration giving a half-maximal response (EC50) at 3 days of 49.9 µM. The EC50 was 32 µM in series [3]; over 64 µM in series [4] (setting [8]); 9.19 µM in series [5] (setting [9]); over 64 µM in series [6] (setting [10]); over 64 µM in series [7] (setting [11]).

`c1ccc(NCc2cn(-c3ccccc3)nc2-c2ccc3c(c2)OCCO3)cc1` [Compound 13, N-((3-(2,3-dihydrobenzo[b][1,4]dioxin-6-yl)-1-phenyl-1H-pyrazol-4-yl)methyl)aniline] returned an EC50 at 3 days in series [1] of over 64 µM. The EC50 in series [3] is over 64 µM; in series [4] (setting [8]) it was 2.23 µM; in series [5] (setting [9]), 10.8 µM; in series [6] (setting [10]) it was 31.4 µM; in series [7] (setting [11]), 7.32 µM.

In series [1], `O=C(NCCc1cccnc1)c1cn(-c2ccccc2)nc1-c1ccc2c(c1)OCCO2` [Compound 36, 3-(2,3-dihydrobenzo[b][1,4]dioxin-6-yl)-1-phenyl-N-(2-(pyridin-3-yl)ethyl)-1H-pyrazole-4-carboxamide] displayed an EC50 at 3 days of 45 µM. Also, the EC50 in series [3] is over 64 µM; in series [4] (setting [8]), 4.56 µM; in series [5] (setting [9]), 45.2 µM; in series [6] (setting [10]), 19.4 µM; in series [7] (setting [11]) it was 4 µM.

In turn, `c1ccc(-n2cc(CNCCc3ccncc3)c(-c3ccc4c(c3)OCCO4)n2)cc1` [Compound 19, N-((3-(2,3-dihydrobenzo[b][1,4]dioxin-6-yl)-1-phenyl-1H-pyrazol-4-yl)methyl)-2-(pyridin-4-yl)ethan-1-amine hydrochloride] displayed an EC50 at 3 days in series [1] of 20.2 µM. Also, the EC50 was determined as 32 µM in series [3]; 7.46 µM in series [4] (setting [8]); 20.3 µM in series [5] (setting [12]); 6.27 µM in series [6] (setting [13]); 1.72 µM in series [7] (setting [14]).

In series [1], `CNC(=O)c1cc(Oc2ccc(NC(=O)c3cn(-c4ccccc4)nc3-c3ccc4c(c3)OCCO4)cc2)ccn1` [Compound 38, 4-(4-(3-(2,3-dihydrobenzo[b][1,4]dioxin-6-yl)-1-phenyl-1H-pyrazole-4-carboxamido)phenoxy)-N-methylpicolinamide] had an EC50 at 3 days of 6.35 µM. Besides, the EC50 is over 64 µM in series [3]; over 64 µM in series [4] (setting [8]); over 64 µM in series [5] (setting [9]); 8 µM in series [6] (setting [10]); 1.75 µM in series [7] (setting [11]).

`O=C(Nc1ccc(F)cc1)c1cn(-c2ccccc2)nc1-c1ccc2c(c1)OCCO2` [Compound 31, 3-(2,3-dihydrobenzo[b][1,4]dioxin-6-yl)-N-(4-fluorophenyl)-1-phenyl-1H-pyrazole-4-carboxamide]: in series [1], the EC50 at 3 days was over 64 µM. The EC50 in series [3] was over 64 µM; in series [4] (setting [8]) it was 7.38 µM; in series [5] (setting [9]), over 64 µM; in series [6] (setting [10]), 6.73 µM; in series [7] (setting [11]), 3.12 µM.

With `c1ccc(-n2cc(CNCCN3CCCC3)c(-c3ccc4c(c3)OCCO4)n2)cc1` [Compound 26, N-((3-(2,3-dihydrobenzo[b][1,4]dioxin-6-yl)-1-phenyl-1H-pyrazol-4-yl)methyl)-2-(pyrrolidin-1-yl)ethan-1-amine dihydrochloride], the EC50 at 3 days in series [1] was determined as 21.7 µM. The EC50 in series [3] was 32 µM; in series [4] (setting [8]) it was under 10 µM; in series [4], 7.92 µM; in series [5] (setting [12]) it was under 10 µM; in series [5] (read-out: L. inf. (EC50), amastigotes in PMM, 5 days), 8.3 µM; in series [6] (read-out: T. b. bruc. (EC50), 3 days), 1.52 µM. Also, the EC50 in series [6] (read-out: T. b. bruc. (EC50), 3 days, listed as 26/HIT 8) was under 10 µM; in series [7] (read-out: T. b. rhod. (EC50), 3 days), 1.75 µM; in series [7] (read-out: T. b. rhod. (EC50), 3 days, listed as 26/HIT 8), under 10 µM; in series [2] (read-out: EC50 for TLR9 antagonism), 3.16 µM.

In series [1], `CNC(=O)c1cc(Oc2ccc(NCc3cn(-c4ccccc4)nc3-c3ccc4c(c3)OCCO4)cc2)ccn1` [Compound 22, 4-(4-(((3-(2,3-dihydrobenzo[b][1,4]dioxin-6-yl)-1-phenyl-1H-pyrazol-4-yl)methyl)amino)phenoxy)-N-methylpicolinamide] gave an EC50 at 3 days of over 64 µM. Moreover, the EC50 in series [3] is over 64 µM; in series [4] (setting [8]), over 64 µM; in series [5] (setting [9]), over 64 µM; in series [6] (setting [10]) it was 2.22 µM; in series [7] (setting [11]), 0.74 µM. Also, the selectivity index in series [7] (T. b. rhodesiense versus cytotoxicity) was found to be 86.

Source of the values: PMC11487390, “Design and Synthesis of 1,3-Diarylpyrazoles and Investigation of Their Cytotoxicity and Antiparasitic Profile” (International Journal of Molecular Sciences, 2024).
